In the experiment the target is MALT1 (Homo sapiens (Human), UniProt Q9UDY8). The experiment is described as follows: MALT1 enzymatic activity inhibition (fluorescence, Ac-LRSR-AMC substrate). Type of experiment: biochemical. The note with it: recombinant MALT1 1.5 ng/μl, Ac-LRSR-AMC 1 μM. On the procedure:
Compound activity was determined using recombinant MALT1 protein (Creative Biomart, Cat #MALT1-28H) and Ac-LRSR-AMC Substrate in an in vitro enzymatic reaction. The enzymatic assay used to determine activity was a Fluorescence assay using a Microplate Reader ClarioStar Plus. The enzymatic reaction was carried out in 1× Assay Buffer (50 mM HEPES pH 7.2-7.4, 100 mM NaCl, 900 mM Sodium citrate, 10 mM DTT). The compounds were dispensed on a 384-well Diamond Well Plate (Axygen, Cat #P-384-120SQ-C—S) using the Biomek FX liquid handling system at 100× solutions of compounds in DMSO. 2.5×MALT1 mix (final concentration 1.5 ng/μl of MALT1) was prepared in 1× Assay Buffer and 8 μl of mixture per well were added into 384w white Reaction Plates with NBS (Corning, Cat #4513). 8 μl of 1× Assay Buffer were used for negative control. Plates were centrifuged for 1 min at 200 g. Next, the compounds were added to Reaction plates using Biomek station via following steps: 1 μl of 100× compounds (in DMSO) was mixed thoroughly with 19 μl of 1× Assay Buffer, then 4 μl of this mixture were added to Reaction plates with 8 μl of MALT1 mix. Plates were centrifuged for 1 min at 200 g and incubated for 10 minutes at rt. Next, 2.5× Ac-LRSR-AMC mix (final concentration 1 μM of Ac-LRSR-AMC) was prepared in 1× Assay Buffer and 8 μl of mixture per well were added to Reaction Plates using Biomek station. Plates were centrifuged for 1 min at 200 g, then the fluorescence was measured immediately using Microplate Reader. Plates were incubated for 30 minutes at 37° C., then for 30 minutes at rt. The fluorescence was measured after the whole incubation using Microplate Reader. The reaction signal was calculated as the subtraction of the first data set values from the second. The % inhibition was then used to calculate the IC50 values. The results of this assay are shown in the Table A. The values of EC50 shown as a letters A-E, where: A≤0.2 μM; 0.2 μM<B≤0.5 μM; 0.5 μM<C≤1 μM; 1<D≤5 μM; E >5.

Chain of MALT1 (Q9UDY8 whole entry): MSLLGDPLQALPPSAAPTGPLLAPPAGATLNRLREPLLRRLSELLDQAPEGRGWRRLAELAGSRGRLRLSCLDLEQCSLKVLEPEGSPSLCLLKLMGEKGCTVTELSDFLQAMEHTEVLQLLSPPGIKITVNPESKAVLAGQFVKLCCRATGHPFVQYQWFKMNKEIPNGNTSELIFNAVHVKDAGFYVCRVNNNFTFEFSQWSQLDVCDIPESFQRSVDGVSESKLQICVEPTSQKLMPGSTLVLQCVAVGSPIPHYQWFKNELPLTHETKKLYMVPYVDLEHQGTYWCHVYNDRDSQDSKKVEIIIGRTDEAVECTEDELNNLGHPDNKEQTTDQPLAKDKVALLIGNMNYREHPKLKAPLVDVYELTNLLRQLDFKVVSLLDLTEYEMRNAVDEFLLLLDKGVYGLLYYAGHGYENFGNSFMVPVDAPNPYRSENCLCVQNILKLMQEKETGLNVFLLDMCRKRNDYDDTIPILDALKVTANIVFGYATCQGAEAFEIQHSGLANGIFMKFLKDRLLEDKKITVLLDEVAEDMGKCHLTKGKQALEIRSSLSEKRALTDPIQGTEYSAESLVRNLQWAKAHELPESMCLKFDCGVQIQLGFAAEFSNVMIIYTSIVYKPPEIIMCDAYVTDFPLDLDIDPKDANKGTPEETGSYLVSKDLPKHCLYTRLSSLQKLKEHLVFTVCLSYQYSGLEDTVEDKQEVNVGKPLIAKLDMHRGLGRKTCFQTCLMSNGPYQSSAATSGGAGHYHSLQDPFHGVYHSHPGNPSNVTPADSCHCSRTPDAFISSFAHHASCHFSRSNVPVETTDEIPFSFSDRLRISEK

For `O=C(CCOCCOCCN1CCN(c2ccc3c(c2)CN(C2CCC(=O)NC2=O)C3=O)CC1)NCCNC(=O)[C@@H]1C[C@@H](O)CN1C(=O)Nc1cnc2ccnn2c1C1CCCC1` (stereo partly drawn) [Compound 47, (2S,4R)-N1-(7-cyclopentylpyrazolo[1,5-a]pyrimidin-6-yl)-N2-[2-[3-[2-[2-[4-[2-(2,6-dioxo-3-piperidyl)-1-oxo-isoindolin-5-yl]piperazin-1-yl]ethoxy]ethoxy]propanoylamino]ethyl]-4-hydroxy-pyrrolidine-1,2-dicarboxamide], the EC50 was greater than 5 µM.
In the case of `Cc1cc(NC(=O)Nc2cnc3ccnn3c2C2CCC2)cnc1-c1noc(CCCCCC(=O)N2CCN(c3ccc4c(c3)CN(C3CCC(=O)NC3=O)C4=O)CC2)n1` (centres unmarked) [Compound 114, 1-(7-cyclobutylpyrazolo[1,5-a]pyrimidin-6-yl)-3-[6-[5-[6-[4-[2-(2,6-dioxo-3-piperidyl)-1-oxo-isoindolin-5-yl]piperazin-1-yl]-6-oxo-hexyl]-1,2,4-oxadiazol-3-yl]-5-methyl-3-pyridyl]urea], the EC50 is no more than 0.2 µM.
Under `O=C(CCOCCN1CCN(c2ccc3c(c2)CN(C2CCC(=O)NC2=O)C3=O)CC1)NCCOc1ncc(Cl)cc1NC(=O)Nc1cnc2nccn2c1C1CCCC1` (centres unmarked) [Compound 52, N-[2-[[5-chloro-3-[(5-cyclopentylimidazo[1,2-a]pyrimidin-6-yl)carbamoylamino]-2-pyridyl]oxy]ethyl]-3-[2-[4-[2-(2,6-dioxo-3-piperidyl)-1-oxo-isoindolin-5-yl]piperazin-1-yl]ethoxy]propanamide] stands greater than 5 µM; under `O=C1CCC(N2Cc3cc(N4CCN(C(=O)CCCCc5nc(-c6ncc(NC(=O)Nc7cnc8ccnn8c7C7CCCC7)cc6F)no5)CC4)ccc3C2=O)C(=O)N1` (centres unmarked) [Compound 81, 1-(7-cyclopentylpyrazolo[1,5-a]pyrimidin-6-yl)-3-[6-[5-[5-[4-[2-(2,6-dioxo-3-piperidyl)-1-oxo-isoindolin-5-yl]piperazin-1-yl]-5-oxo-pentyl]-1,2,4-oxadiazol-3-yl]-5-fluoro-3-pyridyl]urea], 0.2 to 0.5 µM; under `Cc1cc2ncc(NC(=O)Nc3cnc(-c4noc(CCCCCN5CCN(c6ccc7c(c6)CN(C6CCC(=O)NC6=O)C7=O)CC5)n4)c(C)c3)c(C3CCCO3)n2n1` (centres unmarked) [Compound 85, 1-[6-[5-[5-[4-[2-(2,6-dioxo-3-piperidyl)-1-oxo-isoindolin-5-yl]piperazin-1-yl]pentyl]-1,2,4-oxadiazol-3-yl]-5-methyl-3-pyridyl]-3-(2-methyl-7-tetrahydrofuran-2-yl-pyrazolo[1,5-a]pyrimidin-6-yl)urea], no more than 0.2 µM.
Under `CC(C)c1c(NC(=O)Nc2cn(CCCCC(=O)N3CCN(c4ccc5c(c4)CN(C4CCC(=O)NC4=O)C5=O)CC3)nc2C(F)(F)F)cnc2ccnn12` (centres unmarked) [Compound 157, 1-[1-[5-[4-[2-(2,6-dioxo-3-piperidyl)-1-oxo-isoindolin-5-yl]piperazin-1-yl]-5-oxo-pentyl]-3-(trifluoromethyl)pyrazol-4-yl]-3-(7-isopropylpyrazolo[1,5-a]pyrimidin-6-yl)urea] stands greater than 5 µM; under `O=C1CCC(N2Cc3cc(N4CCN(CCCCc5nc(-c6ncc(NC(=O)Nc7cnc8c(Cl)cnn8c7C7CCCC7)cc6Cl)no5)CC4)ccc3C2=O)C(=O)N1` (centres unmarked) [Compound 22, N-(3-Chloro-7-cyclopentylpyrazolo[1,5-a]pyrimidin-6-yl)-N′-{5-chloro-6-[5-(4-{4-[2-(2,6-dioxopiperidin-3-yl)-1-oxo-2,3-dihydro-1H-isoindol-5-yl]piperazin-1-yl}butyl)-1,2,4-oxadiazol-3-yl]pyridin-3-yl}urea], 1 to 5 µM; under `O=C1CCC(N2Cc3cc(N4CCN(C(=O)CCCc5nc(-c6ncc(NC(=O)Nc7cnc8ccnn8c7C7CC7)cc6Cl)no5)CC4)ccc3C2=O)C(=O)N1` (centres unmarked) [Compound 165, 1-[5-chloro-6-[5-[4-[4-[2-(2,6-dioxo-3-piperidyl)-1-oxo-isoindolin-5-yl]piperazin-1-yl]-4-oxo-butyl]-1,2,4-oxadiazol-3-yl]-3-pyridyl]-3-(7-cyclopropylpyrazolo[1,5-a]pyrimidin-6-yl)urea], no more than 0.2 µM.
Regarding `Cc1c(NC(=O)Nc2cnc(-c3noc(CCCCCC(=O)N4CCN(c5ccc6c(c5)CN(C5CCC(=O)NC5=O)C6=O)CC4)n3)c(Cl)c2)cnc2ccnn12` (centres unmarked) [Compound 65, 1-[5-chloro-6-[5-[6-[4-[2-(2,6-dioxo-3-piperidyl)-1-oxo-isoindolin-5-yl]piperazin-1-yl]-6-oxo-hexyl]-1,2,4-oxadiazol-3-yl]-3-pyridyl]-3-(7-methylpyrazolo[1,5-a]pyrimidin-6-yl)urea], the EC50 is 0.2 to 0.5 µM.
With `Cc1cc(NC(=O)Nc2cnc3c(Cl)cnn3c2C2CCCC2)cnc1-c1noc(CCCN2CCN(c3ccc4c(c3)CN(C3CCC(=O)NC3=O)C4=O)CC2)n1` (centres unmarked) [Compound 19, 1-(3-chloro-7-cyclopentyl-pyrazolo[1,5-a]pyrimidin-6-yl)-3-[6-[5-[3-[4-[2-(2,6-dioxo-3-piperidyl)-1-oxo-isoindolin-5-yl]piperazin-1-yl]propyl]-1,2,4-oxadiazol-3-yl]-5-methyl-3-pyridyl]urea] the figure was 1 to 5 µM; with `Cc1cc(NC(=O)Nc2cnc3ccnn3c2C2CCCC2)cnc1-c1noc(COCCCCN2CCN(c3ccc4c(c3)CN(C3CCC(=O)NC3=O)C4=O)CC2)n1` (centres unmarked) [Compound 11, 1-(7-cyclopentylpyrazolo[1,5-a]pyrimidin-6-yl)-3-[6-[5-[4-[4-[2-(2,6-dioxo-3-piperidyl)-1-oxo-isoindolin-5-yl]piperazin-1-yl]butoxymethyl]-1,2,4-oxadiazol-3-yl]-5-methyl-3-pyridyl]urea], 0.2 to 0.5 µM; with `Cc1cc(NC(=O)Nc2cnc3ccnn3c2C2CCC2)cnc1-c1noc(CCCCCCN2CCN(c3ccc4c(c3)CN(C3CCC(=O)NC3=O)C4=O)CC2)n1` (centres unmarked) [Compound 115, 1-(7-cyclobutylpyrazolo[1,5-a]pyrimidin-6-yl)-3-[6-[5-[6-[4-[2-(2,6-dioxo-3-piperidyl)-1-oxo-isoindolin-5-yl]piperazin-1-yl]hexyl]-1,2,4-oxadiazol-3-yl]-5-methyl-3-pyridyl]urea], no more than 0.2 µM.
Under `O=C1CCC(N2Cc3cc(N4CCN(C(=O)CCCc5nc(-c6ncc(NC(=O)Nc7cnc8ccnn8c7C7CCCC7)cc6Cl)no5)CC4)ccc3C2=O)C(=O)N1` (centres unmarked) [Compound 71, 1-[5-chloro-6-[5-[4-[4-[2-(2,6-dioxo-3-piperidyl)-1-oxo-isoindolin-5-yl]piperazin-1-yl]-4-oxo-butyl]-1,2,4-oxadiazol-3-yl]-3-pyridyl]-3-(7-cyclopentylpyrazolo[1,5-a]pyrimidin-6-yl)urea] stands no more than 0.2 µM; under `Cc1cc(NC(=O)Nc2cnc3ccnn3c2C2CCCCC2)cnc1-c1noc(CCCCC(=O)Nc2ccc3c(c2)CN(C2CCC(=O)NC2=O)C3=O)n1` (centres unmarked) [Compound 125, 5-[3-[5-[(7-cyclohexylpyrazolo[1,5-a]pyrimidin-6-yl)carbamoylamino]-3-methyl-2-pyridyl]-1,2,4-oxadiazol-5-yl]-N-[2-(2,6-dioxo-3-piperidyl)-1-oxo-isoindolin-5-yl]pentanamide], 0.5 to 1 µM.
With `COc1cc(-c2c(NC(=O)Nc3cnc(N4CCN(C(=O)COCC(=O)Nc5cccc6c5C(=O)N(C5CCC(=O)NC5=O)C6=O)CC4)c(C)c3)cnc3ccnn23)cc(OC)c1OC` (centres unmarked) [Compound 26, N-[2-(2,6-dioxo-3-piperidyl)-1,3-dioxo-isoindolin-4-yl]-2-[2-[4-[3-methyl-5-[[7-(3,4,5-trimethoxyphenyl)pyrazolo[1,5-a]pyrimidin-6-yl]carbamoylamino]-2-pyridyl]piperazin-1-yl]-2-oxo-ethoxy]acetamide] the figure was greater than 5 µM; with `O=C1CCC(N2Cc3cc(N4CCN(CCCCCCc5nc(-c6ncc(NC(=O)Nc7cnc8ccnn8c7C7CCCC7)cc6C(F)(F)F)no5)CC4)ccc3C2=O)C(=O)N1` (centres unmarked) [Compound 133, 1-(7-cyclopentylpyrazolo[1,5-a]pyrimidin-6-yl)-3-[6-[5-[6-[4-[2-(2,6-dioxo-3-piperidyl)-1-oxo-isoindolin-5-yl]piperazin-1-yl]hexyl]-1,2,4-oxadiazol-3-yl]-5-(trifluoromethyl)-3-pyridyl]urea], no more than 0.2 µM; with `O=C1CCC(N2Cc3cc(N4CCN(CCCCCCc5nc(-c6ncc(NC(=O)Nc7cnc8ccnn8c7C7CCCC7)cc6F)no5)CC4)ccc3C2=O)C(=O)N1` (centres unmarked) [Compound 95, 1-(7-cyclopentylpyrazolo[1,5-a]pyrimidin-6-yl)-3-[6-[5-[6-[4-[2-(2,6-dioxo-3-piperidyl)-1-oxo-isoindolin-5-yl]piperazin-1-yl]hexyl]-1,2,4-oxadiazol-3-yl]-5-fluoro-3-pyridyl]urea], no more than 0.2 µM.

The values above are taken from US20250163066A1, “PROTACs of MALT1” (TEGID THERAPEUTICS, INC., priority 2022, published 2025).
